Reference: publication PMC3870587 (Biochemistry, 2013)
pKd: −log10 of the molar value. Where “and” joins values, the source holds several entries; their conditions need not be identical. Equal entries are not always repeated.

Tests used:
[1] = target: MTAP:phosphate complex; settings: read-out: dissociation constant (Kd); binding to MTAP:phosphate, ternary complex; ref [9],[10],[11]; cited from earlier work
[2] = target: T1, human MTAP (apo) (Homo sapiens, UniProt Q13126); assay: Isothermal titration calorimetry of ligands binding to apo MTAP in Hepes buffer; settings: for ΔΔG relative to MTA; contribution of the 9-deazaadenine (protonated N7): binding to apo MTAP, ΔG of MTA subtracted
T1 sequence (Q13126 1-283): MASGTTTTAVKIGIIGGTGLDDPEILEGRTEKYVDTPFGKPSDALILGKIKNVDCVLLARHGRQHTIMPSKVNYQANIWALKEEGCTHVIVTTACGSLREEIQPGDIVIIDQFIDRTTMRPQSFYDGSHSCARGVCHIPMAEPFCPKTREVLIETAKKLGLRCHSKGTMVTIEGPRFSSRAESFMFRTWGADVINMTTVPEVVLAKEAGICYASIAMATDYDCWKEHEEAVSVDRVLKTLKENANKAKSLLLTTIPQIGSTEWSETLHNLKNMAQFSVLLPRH

[3] = target: T1, human MTAP (apo); assay: Isothermal titration calorimetry of ligands binding to apo MTAP in Tris buffer; settings: for ΔHTris [n] / −TΔSTris: apo MTAP; for ΔHTris [n]: Tris buffer pH 7.4; for −TΔSTris: Tris; for ΔHcorrection / −TΔScorrection: without protonation/deprotonation effects; for ΔHcorrection share of total binding free energy: binding to apo MTAP
[4] = system: MTAP; settings: steady-state kinetic analysis; ref [7],[12]; cited from earlier work
[5] = system: MTAP:phosphate complex; assay: Binding of TS analogues to the MTAP:phosphate complex; set-up: species or system human; settings: from 40 nM to 90 pM
[6] = system: human lung cancer; settings: immunodeficient mice; ref [4],[5]; cited from earlier work
[7] = system: human head and neck cancer; settings: immunodeficient mice; ref [4],[5]; cited from earlier work
[8] = apo MTAP, Hepes, all three sites or first-listed set of sites
[9] = all three sites or first two sites
[10] = all three sites [3] or first two sites [2]
[11] = apo MTAP, Hepes, second-listed set of sites

| Compound | pKd [1] | ΔG [2, 8] | ΔHHepes [2, 8] [kcal/mol] | −TΔSHepes [2, 8] | NumberProton (protons released from the binding of ligand to MTAP) [3, 9] | ΔHTris - ΔHHepes [3, 9] [kcal/mol] | ΔHTris [n] [3, 10] | −TΔSTris [3, 9] [kcal/mol] | ΔHcorrection [3, 9] | −TΔScorrection [3, 9] [kcal/mol] | ΔΔG relative to MTA; contribution of the 9-deazaadenine (protonated N7) [2] [kcal/mol] | ΔHcorrection share of total binding free energy [3] [%] | ΔG [2, 11] [kcal/mol] | ΔHHepes [2, 11] [kcal/mol] | −TΔSHepes [2, 11] [kcal/mol] | further results |
| --- | --- | --- | --- | --- | --- | --- | --- | --- | --- | --- | --- | --- | --- | --- | --- | --- |
| Nc1ncnc2c(CN3CC(CSc4ccc(Cl)cc4)[C@H](O)C3)c[nH]c12 (stereo partly shown) [pClPhT-DADMe-ImmA] | 11.00 | – | – | – | – | – | – | – | – | – | – | – | – | – | – | – |
| O=P(O)(O)O [phosphate, potassium phosphate] | – | -6.51 kcal/mol and -6.51 ± 0.06 kcal/mol | -8.7 ± 0.3 | 2.2 ± 0.3 kcal/mol | −0.91 ± 0.05 | 5.9 ± 0.3 | −2.77 ± 0.04 [3] kcal/mol | -3.74 ± 0.07 | -13.1 kcal/mol and -13.1 ± 0.4 kcal/mol | 6.6 ± 0.4 | – | – | – | – | – | pKd ([2]; apo MTAP, Hepes, all three sites): 4.77; protons absorbed from the buffer on binding to apo MTAP ([3]; pH 7.4): 0.91 ± 0.05 |
| CSCC1NC(c2c[nH]c3c(N)ncnc23)[C@@H](O)[C@H]1O (stereo partly shown) [MT-ImmA] | 9.00 | -9.7 ± 0.1 kcal/mol | -9.59 ± 0.08 | -0.1 ± 0.1 kcal/mol | 0.5 and 0.50 ± 0.01 | -3.23 ± 0.09 | −12.82 ± 0.05 [3] kcal/mol | 3.1 ± 0.1 | -7.15 kcal/mol and -7.15 ± 0.09 kcal/mol | -2.6 ± 0.1 | -1.3 | 74 | – | – | – | – |
| 5'-methylthioadenosine [MTA, reference compound] | – | -11.1 kcal/mol and -11.1 ± 0.4 kcal/mol | -1.0 ± 0.3 | -10.1 kcal/mol and -10.1 ± 0.5 kcal/mol | – | – | – | – | – | – | – | – | -8.4 ± 0.1 | -6.1 ± 0.2 | -2.3 ± 0.2 | Km [4]: 1.7 µM |
| CSC[C@H]1CN(Cc2c[nH]c3c(N)ncnc23)C[C@@H]1O [MT-DADMe-ImmA] | 10.05 | -10.1 kcal/mol and -10.1 ± 0.2 kcal/mol | -10.2 ± 0.8 | 0.1 ± 0.8 kcal/mol | 0.2 and 0.2 ± 0.1 | -1.2 ± 0.8 | -11.4 ± 0.2 kcal/mol | 1.3 ± 0.3 | -9.2 kcal/mol and -9.2 ± 0.9 kcal/mol | -0.9 ± 0.9 | -1.7 | 91 | -9.5 ± 0.1 | -3 ± 1 | -7 ± 1 | decrease of Kd, apo MTAP to ternary complex with phosphate [5]: 440 fold; effect on human lung cancer [6]: suppresses the growth and metastases of human lung cancer; effect on human head and neck cancer [7]: causes remission of human head and neck cancer; ΔHTris [n] ([3]; third site [1]): -10.3 ± 0.4 kcal/mol; −TΔSTris ([3]; third site): 0.8 ± 0.4 kcal/mol; NumberProton (protons released from the binding of ligand to MTAP) ([3]; third site): 1.1 and 1.1 ± 0.2; ΔHTris - ΔHHepes ([3]; third site): -7 ± 1 kcal/mol; ΔHcorrection ([3]; third site): 2 ± 1 kcal/mol; −TΔScorrection ([3]; third site): -12 ± 1 kcal/mol |
